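Here, GI50 denotes the concentration required for 50% inhibition of growth. TGI: concentration producing complete growth inhibition.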
Legend:
Assay in all cases: DTP human tumour cell line panel, 384-well format
[1] = tested on: 786-0 renal
[2] = tested on: A498 renal
[3] = tested on: A549 NSCLC
[4] = tested on: ACHN renal
[5] = tested on: BT-549 breast
[6] = tested on: CAKI-1 renal
[7] = tested on: COLO 205 colon
[8] = tested on: DU-145 prostate
[9] = tested on: EKVX NSCLC
[10] = tested on: HCT-116 colon
[11] = tested on: HCT-15 colon
[12] = tested on: HL-60(TB) leukemia
[13] = tested on: HOP-62 NSCLC
[14] = tested on: HOP-92 NSCLC
[15] = tested on: HS 578T breast
[16] = tested on: IGROV1 ovarian
[17] = tested on: KM12 colon
[18] = tested on: LOX IMVI melanoma
[19] = tested on: M14 melanoma
[20] = tested on: MALME-3M melanoma
[21] = tested on: MCF7 breast
[22] = tested on: MDA-MB-231 breast
[23] = tested on: MDA-MB-435 melanoma
[24] = tested on: MDA-MB-468 breast
[25] = tested on: MOLT-4 leukemia
[26] = tested on: NCI-H226 lung
[27] = tested on: NCI-H23 lung
[28] = tested on: NCI-H322M lung
[29] = tested on: NCI-H460 NSCLC
[30] = tested on: NCI-H522 lung
[31] = tested on: NCI/ADR-RES ovarian
[32] = tested on: OVCAR-3 ovarian
[33] = tested on: OVCAR-4 ovarian
[34] = tested on: OVCAR-5 ovarian
[35] = tested on: OVCAR-8 ovarian
[36] = tested on: PC-3 prostate
[37] = tested on: RPMI-8226 leukemia
[38] = tested on: RXF 393 renal
[39] = tested on: SF-268 CNS
[40] = tested on: SF-295 CNS
[41] = tested on: SF-539 CNS
[42] = tested on: SK-MEL-28 melanoma
[43] = tested on: SK-MEL-5 melanoma
[44] = tested on: SK-OV-3 ovarian
[45] = tested on: SN12C renal
[46] = tested on: SNB-19 CNS
[47] = tested on: SNB-75 CNS
[48] = tested on: SR leukemia
[49] = tested on: SW-620 colon
[50] = tested on: T-47D breast
[51] = tested on: TK-10 renal
[52] = tested on: U251 glioblastoma
[53] = tested on: UACC-257 melanoma
[54] = tested on: UACC-62 melanoma
[55] = tested on: UO-31 renal

## N#CC[C@H](C1CCCC1)n1cc(-c2ncnc3[nH]ccc23)cn1
[1]
  GI50: 17.4 µM
  TGI: 43.9 µM
[2]
  GI50: 21.7 µM
  TGI: 41.6 µM
[3]
  GI50: 18.3 µM
  TGI: 52.6 µM
[4]
  GI50: 21.1 µM
  TGI: 50.9 µM
[5]
  GI50: 19.8 µM
  TGI: 34.6 µM
[6]
  GI50: 21.3 µM
  TGI: 50.5 µM
[7]
  GI50: 24.7 µM
  TGI: 53.1 µM
[8]
  GI50: 16 µM
  TGI: 42.1 µM
[9]
  GI50: 20.9 µM
  TGI: 66 µM
[10]
  GI50: 23.5 µM
  TGI: 63.4 µM
[11]
  GI50: 26.2 µM
  TGI: 82.1 µM
[12]
  GI50: 23.9 µM
  TGI: 38.8 µM
[13]
  GI50: 18.7 µM
  TGI: 37.1 µM
[14]
  GI50: 22.2 µM
  TGI: 56.3 µM
[15]
  GI50: 12.4 µM
  TGI: 26 µM
[16]
  GI50: 22.7 µM
  TGI: 84.4 µM
[17]
  GI50: 4.07 µM
  TGI: > 100 µM
[18]
  GI50: 19.1 µM
  TGI: 35.8 µM
[19]
  GI50: 27.2 µM
  TGI: 50.9 µM
[20]
  GI50: 19 µM
  TGI: 34.7 µM
[21]
  GI50: 25.9 µM
  TGI: 77.7 µM
[22]
  GI50: 16.4 µM
  TGI: 40.3 µM
[23]
  GI50: 26.6 µM
  TGI: 66.5 µM
[24]
  GI50: 23.2 µM
  TGI: 53.5 µM
[25]
  GI50: 18.3 µM
  TGI: 46.1 µM
[26]
  GI50: 5.75 µM
  TGI: 25 µM
[27]
  GI50: 17.1 µM
  TGI: 32.8 µM
[28]
  GI50: 26.3 µM
  TGI: 58.7 µM
[29]
  GI50: 16 µM
  TGI: 46.7 µM
[30]
  GI50: 13.6 µM
  TGI: 29.5 µM
[31]
  GI50: 23.4 µM
  TGI: 50.3 µM
[32]
  GI50: 25.8 µM
  TGI: 51.8 µM
[33]
  GI50: 29 µM
  TGI: 51.2 µM
[34]
  GI50: 23.5 µM
  TGI: 48.7 µM
[35]
  GI50: 27.6 µM
  TGI: 75.8 µM
[36]
  GI50: 25.7 µM
  TGI: 58.1 µM
[37]
  GI50: 19.4 µM
  TGI: 34.6 µM
[38]
  GI50: 12.9 µM
  TGI: 30.4 µM
[39]
  GI50: 16.2 µM
  TGI: 36.6 µM
[40]
  GI50: 18.3 µM
  TGI: 37.9 µM
[41]
  GI50: 19.7 µM
  TGI: 42 µM
[42]
  GI50: 23 µM
  TGI: 55.7 µM
[43]
  GI50: 18.2 µM
  TGI: 33.1 µM
[44]
  GI50: 21 µM
  TGI: 45.9 µM
[45]
  GI50: 18.7 µM
  TGI: 49.7 µM
[46]
  GI50: 30.6 µM
  TGI: 82.7 µM
[47]
  GI50: 18.4 µM
  TGI: 41.3 µM
[48]
  GI50: 8.31 µM
  TGI: 20.6 µM
[49]
  GI50: 29.7 µM
  TGI: > 100 µM
[50]
  GI50: 19.5 µM
  TGI: 63.9 µM
[51]
  GI50: 29 µM
  TGI: 89.6 µM
[52]
  GI50: 28.4 µM
  TGI: 71.8 µM
[53]
  GI50: 25.9 µM
  TGI: 68.5 µM
[54]
  GI50: 21.5 µM
  TGI: 41.7 µM
[55]
  GI50: 18.1 µM
  TGI: 47.9 µM

Reference: PubChem BioAssay (NCI)
